Measured values reported in patent US10738028B2, “Spiro three-membered ring, spiro five-membered ring peptide deformylase inhibitor and use thereof in antibacteria and anti-tumor” (priority 2016, dated 2020).

Experiments:
Format in all cases: cell-based
[1] = tested on: Enterococcus faecium (EFM); experiment: MIC, two-fold agar dilution (CLSI), clinical isolates
How it was run: (§1)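 MIC values come from two-fold agar dilution run per CLSI antimicrobial susceptibility testing procedure.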

[2] = tested on: Escherichia coli (including ESBLs, non-ESBLs); experiment: as above
How it was run: as §1

[3] = tested on: Enterococcus faecalis (EFA); experiment: as above
How it was run: as §1

[4] = tested on: methicillin-resistant Staphylococcus epidermidis (MRSE); experiment: as above
How it was run: as §1

[5] = tested on: methicillin-resistant Staphylococcus aureus (MRSA); experiment: as above
How it was run: as §1

[6] = tested on: methicillin-sensitive Staphylococcus epidermidis (MSSE); experiment: as above
How it was run: as §1

[7] = tested on: Moraxella catarrhalis (BCA); experiment: as above
How it was run: as §1

[8] = tested on: methicillin-sensitive Staphylococcus aureus (MSSA); experiment: as above
How it was run: as §1

[9] = tested on: Streptococcus pneoumoniae (SPN); experiment: as above
How it was run: as §1

[10] = tested on: HL60 acute myeloid leukemia cell line; experiment: CCK-8 proliferation inhibition; details: Homo sapiens, HL-60, 72 hours
How it was run: (§2)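 Plating at 2000 cells/well, then incubation overnight at 37° C. Next, a range of compound concentrations for 72 hours (control 1‰ DMSO). Finally, medium decanted and CCK-8 diluted 1:10 added.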

[11] = tested on: SAOS-2 osteosarcoma cell line; experiment: CCK-8 proliferation inhibition; details: Homo sapiens, 72 hours, read-out: IC50 Steosarcoma SAOS-2
How it was run: (§3)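 Using media specific to each line (1640 for MGC-803 and Jurkat, F12 for PC3, DMEM high glucose for MCF-7, each with 10% newborn bovine serum), cells at 2000/well were treated for 72 h with serially formulated compounds, then assessed with CCK-8 diluted 1:10.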

[12] = tested on: Hela cervical cancer cell line; experiment: CCK-8 proliferation inhibition; details: Homo sapiens, 72 hours
How it was run: as §2

[13] = tested on: A549 lung cancer cell line; experiment: CCK-8 proliferation inhibition
How it was run: as §2

[14] = tested on: BEL-7402 liver cancer cell line; experiment: CCK-8 proliferation inhibition
How it was run: as §2

[15] = tested on: MCF-7 breast cancer cell line; experiment: CCK-8 proliferation inhibition; details: Homo sapiens, MCF7, 72 hours
How it was run: as §3

[16] = tested on: Jurkat T cell leukemia cell line; experiment: CCK-8 proliferation inhibition; details: Homo sapiens, 72 hours
How it was run: as §3

[17] = tested on: PC3 prostate cancer cell line; experiment: CCK-8 proliferation inhibition; details: 72 hours
How it was run: as §3

[18] = tested on: MGC-803 gastric cancer cell line; experiment: CCK-8 proliferation inhibition
How it was run: as §3

[19] = tested on: HCT-116 colorectal cancer cell line; experiment: CCK-8 proliferation inhibition; details: 72 hours, CCK-8
How it was run: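 Proliferation over 72 hours of compound treatment was measured with CCK-8 against a 1‰ DMSO control.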

[20] = MIC in vitro anti-bacterial experiments, Gram-positive bacteria; details: lowest MIC reached; read-out: minimum inhibitory concentration against Gram-positive bacteria
How it was run: as §1

[21] = concentration of 30 μM, 72 hours, 30 µM

SMILES: O=C(C[C@@H](CC1CCCC1)C(=O)N1CC2(CC2)C[C@H]1C(=O)Nc1ccc(F)cn1)NO [Example 64]
- Anti-bacterial activity (MIC), strain EFM 15-1 ([1]; clinical isolate EFM 15-1): 32 µg/mL
- Anti-bacterial activity (MIC), strain EFM 15-2 ([1]; clinical isolate EFM 15-2): 32 µg/mL
- Anti-bacterial activity (MIC), strain EFM 15-3 ([1]; clinical isolate EFM 15-3): 32 µg/mL
- Anti-bacterial activity (MIC), strain EFM 15-4 ([1]; clinical isolate EFM 15-4): 1 µg/mL
- Anti-bacterial activity (MIC), strain EFM 15-5 ([1]; clinical isolate EFM 15-5): 1 µg/mL
- Anti-bacterial activity (MIC), strain EFM 15-6 ([1]; clinical isolate EFM 15-6): 1 µg/mL
- Anti-bacterial activity (MIC), strain ECO+ 15-1 ([2]; clinical isolate ECO+ 15-1): 16 µg/mL
- Anti-bacterial activity (MIC), strain ECO+ 15-2 ([2]; clinical isolate ECO+ 15-2): 32 µg/mL
- Anti-bacterial activity (MIC), strain ECO+ 15-3 ([2]; clinical isolate ECO+ 15-3): 16 µg/mL
- Anti-bacterial activity (MIC), strain ECO+ 15-4 ([2]; clinical isolate ECO+ 15-4): 16 µg/mL
- Anti-bacterial activity (MIC), strain ECO− 15-1 ([2]; clinical isolate ECO− 15-1): 16 µg/mL
- Anti-bacterial activity (MIC), strain ECO− 15-2 ([2]; clinical isolate ECO− 15-2): 16 µg/mL
- Anti-bacterial activity (MIC), strain ECO− 15-3 ([2]; clinical isolate ECO− 15-3): 32 µg/mL
- Anti-bacterial activity (MIC), strain ECO− 15-4 ([2]; clinical isolate ECO− 15-4): 16 µg/mL
- Anti-bacterial activity (MIC), strain EFA 15-1 ([3]; clinical isolate EFA 15-1): 32 µg/mL
- Anti-bacterial activity (MIC), strain EFA 15-2 ([3]; clinical isolate EFA 15-2): 32 µg/mL
- Anti-bacterial activity (MIC), strain EFA 15-3 ([3]; clinical isolate EFA 15-3): 32 µg/mL
- Anti-bacterial activity (MIC), strain EFA 15-4 ([3]; clinical isolate EFA 15-4): 32 µg/mL
- Anti-bacterial activity (MIC), strain EFA 15-5 ([3]; clinical isolate EFA 15-5): 32 µg/mL
- Anti-bacterial activity (MIC), strain EFA 15-6 ([3]; clinical isolate EFA 15-6): 32 µg/mL
- Anti-bacterial activity (MIC), strain EFA 15-9 ([3]; clinical isolate EFA 15-9): 4 µg/mL
- Anti-bacterial activity (MIC), strain MRSE 15-1 ([4]; clinical isolate MRSE 15-1): 0.06 µg/mL
- Anti-bacterial activity (MIC), strain MRSE 15-2 ([4]; clinical isolate MRSE 15-2): 0.06 µg/mL
- Anti-bacterial activity (MIC), strain MRSE 15-3 ([4]; clinical isolate MRSE 15-3): 0.06 µg/mL
- Anti-bacterial activity (MIC), strain MRSE 15-7 ([4]; clinical isolate MRSE 15-7): 0.06 µg/mL
- Anti-bacterial activity (MIC), strain MRSA 15-1 ([5]; clinical isolate MRSA 15-1): 0.03 µg/mL
- Anti-bacterial activity (MIC), strain MRSA 15-2 ([5]; clinical isolate MRSA 15-2): 0.06 µg/mL
- Anti-bacterial activity (MIC), strain MRSA 15-3 ([5]; clinical isolate MRSA 15-3): 0.03 µg/mL
- Anti-bacterial activity (MIC), strain MRSA 15-4 ([5]; clinical isolate MRSA 15-4): 0.06 µg/mL
- Anti-bacterial activity (MIC), strain MSSE 15-3 ([6]; clinical isolate MSSE 15-3): 0.03 µg/mL
- Anti-bacterial activity (MIC), strain MSSE 15-4 ([6]; clinical isolate MSSE 15-4): 0.06 µg/mL
- Anti-bacterial activity (MIC), strain MSSE 15-5 ([6]; clinical isolate MSSE 15-5): 0.06 µg/mL
- Anti-bacterial activity (MIC), strain MSSE 15-6 ([6]; clinical isolate MSSE 15-6): > 0.008 µg/mL
- Anti-bacterial activity (MIC), strain BCA 14-1 ([7]; clinical isolate BCA 14-1): 0.25 µg/mL
- Anti-bacterial activity (MIC), strain BCA 14-4 ([7]; clinical isolate BCA 14-4): 1 µg/mL
- Anti-bacterial activity (MIC), strain BCA 14-5 ([7]; clinical isolate BCA 14-5): 1 µg/mL
- Anti-bacterial activity (MIC), strain BCA 14-6 ([7]; clinical isolate BCA 14-6): 1 µg/mL
- Anti-bacterial activity (MIC), strain BCA 14-7 ([7]; clinical isolate BCA 14-7): 1 µg/mL
- Anti-bacterial activity (MIC), strain BCA 14-8 ([7]; clinical isolate BCA 14-8): 0.125 µg/mL
- Anti-bacterial activity (MIC), strain BCA 14-10 ([7]; clinical isolate BCA 14-10): 0.125 µg/mL
- Anti-bacterial activity (MIC), strain MSSA 15-3 ([8]; clinical isolate MSSA 15-3): 0.06 µg/mL
- Anti-bacterial activity (MIC), strain MSSA 15-4 ([8]; clinical isolate MSSA 15-4): 0.03 µg/mL
- Anti-bacterial activity (MIC), strain MSSA 15-5 ([8]; clinical isolate MSSA 15-5): 0.03 µg/mL
- Anti-bacterial activity (MIC), strain MSSA 15-6 ([8]; clinical isolate MSSA 15-6): 16 µg/mL
- Anti-bacterial activity (MIC), strain SPN 16-2 ([9]; clinical isolate SPN 16-2): 0.125 µg/mL
- Anti-bacterial activity (MIC), strain SPN 16-4 ([9]; clinical isolate SPN 16-4): 0.125 µg/mL
- IC50 [10]: 1.21 µM
- IC50 [11]: 2 µM
- IC50 [12]: 11.5 µM
- inhibition at 30 µM ([13]; Homo sapiens, A549, 72 h, concentration of 30 μM): > 50%
- IC50 ([13]; Homo sapiens, A549, 72 hours): 4.86 µM
- Inhibition of proliferation, Lung cancer A549 [13, 21]: 61%
- IC50 ([14]; Homo sapiens, Bel-7402, 72 hours): 5 µM
- Inhibition of proliferation, Liver cancer BEL-7402 [14, 21]: 81%
- IC50 [15]: 6.62 µM
- IC50 [16]: 7.61 µM
- IC50 [17]: 6.17 µM
- inhibition at 30 µM ([18]; Homo sapiens, MGC-803, 72 h, concentration of 30 μM): > 50%
- IC50 ([18]; Homo sapiens, MGC-803, 72 hours): 6.11 µM
- Inhibition of proliferation, Gastric cancer MGC-803 [18, 21]: 63%
- IC50 ([19]; Homo sapiens, HCT-116): 4.88 µM
- HCT116 inhibition rate/% ([19]; concentration of 30 μM, 30 µM): 87%
- MIC [20]: < 0.008 µg/mL
